One experiment concerns the target T1, Aurora B kinase (Homo sapiens, UniProt Q96GD4).
T1 construct: purchased BPS Bioscience
Briefly: Aurora B kinase assay (IMAP fluorescence polarization). The format is biochemical. The settings on record: 10 μM ATP; rounded to 1 significant figure; read-out: Aur-B IC50. An excerpt: (§1) The cell lines HL60 (human promyelocytic leukemia) and HCT116 (human colon carcinoma) were obtained from the American Type Culture Collection, Manassas, Va., U.S.A., and HUVEC-2 (human umbilical vein endothelial cells) from BD Biosciences, Bedford, Mass., U.S.A. Aurora A kinase was obtained from Upstate Biotech, Billerica, Mass., U.S.A.; Aurora B kinase from BPS Bioscience, San Diego, Calif., U.S.A.; and VEGFR2 kinase from Cell Signaling Technology, Danvers, Mass., U.S.A. The IMAP FP Screening Express kit was obtained from Molecular Devices, Sunnyvale, Calif., U.S.A.; the CellTiter-Glo assay kit from Promega Corporation, Madison, Wis., U.S.A.; and the Cellular DNA Cytometric Analysis Reagent Kit and BrdU labeling and detection kit from Roche Diagnostics Corporation, Indianapolis, Ind., U.S.A. All products were used in accordance with manufacturer's directions. Kinase inhibition assays and the histone phosphorylation (p-H3) assay were conducted in duplicate, and the cytotoxicity and HUVEC proliferation assays were conducted in triplicate, in each case with solvent control.
(§2) The kinase reaction was initiated by adding 100 nM fluorescein labeled PKAtide and 10 μM adenosine triphosphate (ATP), and allowed to continue for 45 min at room temperature, after which it was stopped by adding binding reagent (1:400 dilution in binding buffer A). After 30 min of room temperature incubation with shaking, the fluorescence polarization was measured on a LJL plate reader. Aurora B kinase assay: performed as for the Aurora A kinase assay, but using Aurora B kinase instead of Aurora A kinase.
(In general: Polarisation of emitted light reports the rotation of a fluorescent probe.)

In experiment [1] the test system is HCT116 (human colon carcinoma) cells. Briefly: HCT116 cytotoxicity assay (CellTiter-Glo). Type of experiment: cell-based. To be noted: HCT-116, 72 h, cytotoxicity, three days culture, read-out: HCT116 IC50.
Text: as §1
Log-phase cells were trypsinized, collected by centrifugation, and resuspended in a small volume of fresh medium, and the density of viable cells was determined following Trypan Blue staining. Cells were diluted in fresh media (1×10^4 cells/mL for HL60 and 4×10^4 cells/mL for HCT116 cells), the test compounds (concentrations between 0.1 μM and 200 μM, dissolved in DMSO, 50 μL) added immediately after dilution to achieve a final DMSO concentration of 0.5%, then the suspensions added at 150 μL/well to 96-well plates, and incubated overnight to allow attachment in the case of adherent cells. The cells were cultured for three days (about three doubling times). The cells were then collected by centrifugation, and 100 μL of the culture supernatant was replaced by the CellTiter-Glo reagent. After incubation for 15 minutes at room temperature, the plate was read with a luminometer.

A further experiment addresses T2, Aurora A kinase (Homo sapiens, UniProt O14965).
T2 construct: purchased Upstate Biotech
T2 sequence (O14965 1-403): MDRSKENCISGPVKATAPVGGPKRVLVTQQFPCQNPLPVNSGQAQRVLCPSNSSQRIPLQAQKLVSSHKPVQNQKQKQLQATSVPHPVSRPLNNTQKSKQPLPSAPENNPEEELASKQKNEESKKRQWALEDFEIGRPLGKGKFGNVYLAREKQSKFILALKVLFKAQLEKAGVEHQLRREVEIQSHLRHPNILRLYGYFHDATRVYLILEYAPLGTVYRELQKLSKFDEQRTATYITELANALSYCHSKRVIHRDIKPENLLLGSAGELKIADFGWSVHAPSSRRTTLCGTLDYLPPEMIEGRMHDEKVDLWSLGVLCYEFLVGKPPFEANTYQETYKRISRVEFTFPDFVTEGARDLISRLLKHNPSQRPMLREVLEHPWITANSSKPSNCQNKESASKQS
Put plainly: Aurora A kinase assay (IMAP fluorescence polarization). The format is biochemical. The settings on record: 10 μM ATP; rounded to 1 significant figure; read-out: Aur-A IC50.
Text: as §1
as §2, with “Aurora A kinase assay: the test compounds were diluted in dimethylsulfoxide (DMSO, eight concentrations with serial 3-fold dilutions) and incubated (final DMSO concentration 2.5%) with Aurora A kinase at room temperature for 5 min in kinase reaction buffer with 1 mM dithiothreitol (IMAP FP Screening Express). The” for “The”

Experiment [2] relates to HUVEC-2 (human umbilical vein endothelial cells). Briefly: HUVEC VEGF-dependent proliferation assay (BrdU). Type of experiment: cell-based. The settings on record: VEGF (25 ng/mL)-dependent proliferation, read-out: HUVEC IC50.
Text: as §1
HUVEC-2 cells were seeded at 10^4 cells/well in a 96-well plate coated with 0.1% gelatin in complete medium. […] The compounds were serially diluted in DMSO, and added to the cells at 0.5% DMSO final concentration. After 2 hr, VEGF (25 ng/mL) was added; and after a further day, 5-bromo-2-deoxyuridine (BrdU, 10 μM) was added to label proliferating cells, and the cells incubated for another day. The plates were then processed using the Roche BrdU labeling and detection kit, and the VEGF-dependent antiproliferative activity of the compounds determined.

The next experiment concerns p-H3 in HCT116 cells. Briefly: Histone phosphorylation (p-H3) assay. The format is cell-based. The settings on record: Homo sapiens, HCT-116; HCT116 cells, 4 hr incubation; read-out: p-H3 IC50.
Text: as §1
Log phase HCT116 cells were seeded at 2.5×10^4 cells/well in a 96-well plate and allowed to attach overnight. The test compounds were diluted in DMSO (8 concentrations with serial 3-fold dilutions) and added to the cells (0.5% DMSO final concentration), and the cells incubated for 4 hr. The cells were then washed three times with cold phosphate-buffered saline (PBS), and lysis buffer was added. After 30 min shaking at 4° C. and centrifugation, the supernatants were transferred to a nitrocellulose membrane by a “dot-blot” apparatus. After washing the wells, the membrane was processed for Western blot. Detection of p-H3 and β-actin was performed on the same membrane with primary rabbit anti-p-H3 and mouse anti-β-actin antibodies followed by secondary goat anti-rabbit IRDye800 and goat anti-mouse AlexaFluor 680 antibodies. The membranes were scanned on an Odyssey scanner.

A further experiment has as its target T3, VEGFR2 kinase (Homo sapiens, UniProt P35968).
T3 construct: purchased Cell Signaling Technology
Put plainly: VEGFR2 kinase assay. Type of experiment: biochemical. To be noted: 6 μM ATP, 1 mM MnCl2; rounded to 1 significant figure.
Text: as §1
This assay was performed as for the Aurora A kinase assay, using VEGFR2 kinase, CSKtide as the substrate with 6 μM ATP and 1 mM MnCl2, a kinase reaction time of 1 hr, and dilution of the binding reagent 1:1200 in binding buffer A/binding buffer B (1:1).

T3 sequence (P35968 20-1356): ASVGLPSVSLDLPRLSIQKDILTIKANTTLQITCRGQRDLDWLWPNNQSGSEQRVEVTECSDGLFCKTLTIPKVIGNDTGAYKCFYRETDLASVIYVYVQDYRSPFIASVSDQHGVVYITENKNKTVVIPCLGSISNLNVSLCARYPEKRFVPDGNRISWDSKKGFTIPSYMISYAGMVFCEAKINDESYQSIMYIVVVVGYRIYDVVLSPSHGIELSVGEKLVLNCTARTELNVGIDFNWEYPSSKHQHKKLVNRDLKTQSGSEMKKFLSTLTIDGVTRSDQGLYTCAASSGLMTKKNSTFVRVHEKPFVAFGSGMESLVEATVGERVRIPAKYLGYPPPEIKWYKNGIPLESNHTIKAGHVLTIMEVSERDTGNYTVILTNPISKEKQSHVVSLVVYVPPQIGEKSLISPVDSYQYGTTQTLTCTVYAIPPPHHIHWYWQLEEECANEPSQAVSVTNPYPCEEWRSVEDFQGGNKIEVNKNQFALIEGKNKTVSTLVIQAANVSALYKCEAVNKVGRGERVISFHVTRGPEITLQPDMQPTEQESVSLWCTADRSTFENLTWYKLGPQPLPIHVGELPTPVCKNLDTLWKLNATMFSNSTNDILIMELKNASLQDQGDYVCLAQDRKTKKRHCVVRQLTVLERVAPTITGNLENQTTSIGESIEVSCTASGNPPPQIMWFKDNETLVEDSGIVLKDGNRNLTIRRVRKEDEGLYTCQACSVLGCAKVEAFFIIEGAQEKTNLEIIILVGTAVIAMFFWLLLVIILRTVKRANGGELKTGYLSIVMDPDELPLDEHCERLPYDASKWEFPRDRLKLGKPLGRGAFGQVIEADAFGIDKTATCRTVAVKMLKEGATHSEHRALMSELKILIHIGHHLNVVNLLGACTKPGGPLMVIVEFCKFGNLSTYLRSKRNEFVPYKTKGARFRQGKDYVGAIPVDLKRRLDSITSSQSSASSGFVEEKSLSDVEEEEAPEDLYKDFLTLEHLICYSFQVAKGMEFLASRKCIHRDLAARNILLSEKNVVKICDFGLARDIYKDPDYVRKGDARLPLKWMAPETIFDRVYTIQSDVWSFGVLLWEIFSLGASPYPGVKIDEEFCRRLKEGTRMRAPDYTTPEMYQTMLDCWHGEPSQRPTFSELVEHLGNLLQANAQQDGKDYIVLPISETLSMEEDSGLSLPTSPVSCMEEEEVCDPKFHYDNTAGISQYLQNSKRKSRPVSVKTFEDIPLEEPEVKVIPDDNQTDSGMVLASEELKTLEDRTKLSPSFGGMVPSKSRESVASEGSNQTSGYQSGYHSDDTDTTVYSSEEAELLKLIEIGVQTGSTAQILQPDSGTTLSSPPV
T1 sequence (Q96GD4 whole entry): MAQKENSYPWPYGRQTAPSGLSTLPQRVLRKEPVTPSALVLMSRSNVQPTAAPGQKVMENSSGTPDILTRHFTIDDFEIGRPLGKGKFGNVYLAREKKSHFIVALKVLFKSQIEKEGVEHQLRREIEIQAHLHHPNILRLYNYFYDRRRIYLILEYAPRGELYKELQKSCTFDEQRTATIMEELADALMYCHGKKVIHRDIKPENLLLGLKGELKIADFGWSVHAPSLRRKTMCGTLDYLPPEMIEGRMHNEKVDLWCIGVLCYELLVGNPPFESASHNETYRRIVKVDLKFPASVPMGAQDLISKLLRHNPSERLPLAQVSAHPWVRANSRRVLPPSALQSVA

`CN1CCN(CCCOc2ccc3c(c2)S/C(=C(/C(N)=O)c2nccc(C(F)(F)F)n2)N3)CC1` [Compound 115A]: the IC50 on Aurora B kinase was 0.03 µM; in experiment [1], 0.1 µM; on Aurora A kinase it was 0.04 µM; in experiment [2] it was 0.1 µM; with p-H3 in HCT116 cells it was 0.2 µM; against VEGFR2 kinase, 0.02 µM.
With `NC(=O)/C(=C1\Nc2ccc(C(=O)N3CCC(N)CC3)cc2N1)c1nccc(C(F)(F)F)n1` [Compound 66A], the IC50 at Aurora B kinase turned out to be 0.01 µM; in experiment [1], 0.2 µM; on Aurora A kinase, 0.02 µM; in experiment [2], 0.05 µM; with p-H3 in HCT116 cells, 0.2 µM; against VEGFR2 kinase, 0.002 µM.
In the case of `CN1CCN(C(=O)c2cnc(C(C(N)=O)=C3Nc4ccccc4S3)nc2C(F)(F)F)CC1` (single isomer, unassigned) [Compound 130A, 2-[benzothiazol-2(3H)-ylidene]-2-[5-(4-methylpiperazine-1-carbonyl)-4-trifluoromethylpyrimidin-2-yl]acetamide], the concentration for half-maximal inhibition (IC50) on Aurora B kinase was determined as 0.009 µM; in experiment [1] it was 2 µM; on Aurora A kinase, 0.1 µM; in experiment [2], 0.4 µM; with p-H3 in HCT116 cells it was 0.3 µM; at VEGFR2 kinase, 0.02 µM.
With `NC(=O)/C(=C1\Nc2ccc(C(=O)O)cc2N1)c1nccc(C(F)(F)F)n1` [Compound 28A], the IC50 at Aurora B kinase turned out to be 0.005 µM; in experiment [1], 4 µM; at Aurora A kinase, 0.005 µM; in experiment [2], 0.04 µM; in the experiment with p-H3 in HCT116 cells, 4 µM; at VEGFR2 kinase, 0.01 µM.
With `NC(=O)/C(=C1\Nc2ccc(OCCN3CCOCC3)cc2S1)c1nccc(C(F)(F)F)n1` [Compound 111A], the IC50 on Aurora B kinase turned out to be 0.009 µM; in experiment [1], 2 µM; at Aurora A kinase, 0.02 µM; in experiment [2], 0.3 µM; in the experiment with p-H3 in HCT116 cells, 0.4 µM; against VEGFR2 kinase, 0.1 µM.
For `NC(=O)/C(=C1\Nc2ccc(S(=O)(=O)N3CCNCC3)cc2S1)c1nccc(C(F)(F)F)n1` [Compound 129A], the IC50 at Aurora B kinase is 0.01 µM; in experiment [1], 1 µM; at Aurora A kinase, 0.03 µM; in experiment [2], 0.3 µM; in the experiment on p-H3 in HCT116 cells it was 1 µM; on VEGFR2 kinase, 0.1 µM.
`CN(C)CCCNC(=O)c1ccc2c(c1)N/C(=C(/C(N)=O)c1nccc(C(F)(F)F)n1)N2` [Compound 62A]: the IC50 is 0.01 µM at Aurora B kinase; 0.06 µM in experiment [1]; 0.07 µM on Aurora A kinase; 0.06 µM in experiment [2]; 0.4 µM with p-H3 in HCT116 cells; 0.006 µM at VEGFR2 kinase.
Consider `NC(=O)/C(=C1\Nc2ccc(C(=O)N3CC[C@@H](N)C3)cc2S1)c1nccc(C(F)(F)F)n1` [Compound 69A], for which the IC50 on Aurora B kinase turned out to be 0.03 µM; in experiment [1], 0.09 µM; at Aurora A kinase, 0.02 µM; in experiment [2] it was 0.02 µM; in the experiment on p-H3 in HCT116 cells it was 0.1 µM; on VEGFR2 kinase, 0.002 µM.
Take `NC(=O)/C(=C1\Nc2ccc(CN3CCOCC3)cc2S1)c1nccc(C(F)(F)F)n1` [Compound 91A]: the half-inhibitory concentration (IC50) amounted to 0.02 µM at Aurora B kinase; 0.3 µM in experiment [1]; 0.002 µM on Aurora A kinase; 0.04 µM in experiment [2]; 0.1 µM with p-H3 in HCT116 cells; 0.01 µM on VEGFR2 kinase.
`CCN1CCN(CCCNC(=O)c2ccc3c(c2)S/C(=C(/C(N)=O)c2nccc(C(F)(F)F)n2)N3)CC1` [Compound 56A]: the IC50 on Aurora B kinase is 0.02 µM; in experiment [1], 0.04 µM; at Aurora A kinase it was 0.02 µM; in experiment [2] it was 0.04 µM; with p-H3 in HCT116 cells, 0.7 µM; against VEGFR2 kinase it was 0.02 µM.
`NC(=O)/C(=C1\Nc2ccc(C(=O)N3CC[C@@H](N)C3)cc2N1)c1nccc(C(F)(F)F)n1` [Compound 68A]: the IC50 was determined as 0.01 µM at Aurora B kinase; 0.1 µM in experiment [1]; 0.01 µM on Aurora A kinase; 0.06 µM in experiment [2]; 0.06 µM in the experiment with p-H3 in HCT116 cells; 0.003 µM against VEGFR2 kinase.
As for `CN1CCCCC1C(=O)Nc1ccc2c(c1)N/C(=C(/C(N)=O)c1nccc(C(F)(F)F)n1)N2` (stereo not shown) [Compound 82A], the IC50 at Aurora B kinase was 0.007 µM; in experiment [1] it was 0.08 µM; at Aurora A kinase it was 0.008 µM; in experiment [2], 0.03 µM; in the experiment on p-H3 in HCT116 cells, 0.4 µM; on VEGFR2 kinase, 0.01 µM.
With `NC(=O)/C(=C1\Nc2ccc(NCCN3CCOCC3)cc2S1)c1nccc(C(F)(F)F)n1` [Compound 124A], the IC50 is 0.03 µM at Aurora B kinase; over 20 µM in experiment [1]; 0.03 µM on Aurora A kinase; 3 µM in experiment [2]; 0.1 µM on VEGFR2 kinase.
As to `NC(=O)/C(=C1\Nc2cccc(C(=O)NCCCN3CCOCC3)c2S1)c1nccc(C(F)(F)F)n1` [Compound 52A], the IC50 is 0.06 µM at Aurora B kinase; 1 µM in experiment [1]; 0.06 µM at Aurora A kinase; over 50 µM in the experiment with p-H3 in HCT116 cells; 0.1 µM against VEGFR2 kinase.
`Cc1ccnc(/C(C(N)=O)=C2/Nc3ccccc3S2)n1` [Compound 18A]: the IC50 on Aurora B kinase worked out at 0.04 µM; in experiment [1], 20 µM; on Aurora A kinase, 0.2 µM; with p-H3 in HCT116 cells it was 2 µM; against VEGFR2 kinase, 0.5 µM.
On the same counts, the results for `NC(=O)/C(=C1\Nc2ccc(I)cc2S1)c1nccc(C(F)(F)F)n1` [Compound 25A] are 0.1 µM, 10 µM, 0.2 µM, over 50 µM and 0.4 µM.
On the same counts, the results for `COC(=O)c1ccc2c(c1)N/C(=C(/C(N)=O)c1nccc(C(F)(F)F)n1)N2` [Compound 29A] are 0.01 µM, 0.2 µM, 0.03 µM, over 5 µM and 0.1 µM.

As a reminder, the IC50 is the midpoint of a concentration-inhibition curve.
